Laboratory results: ChEMBL document CHEMBL3804814, “Quinazolines and quinazolinones as ubiquitous structural fragments in medicinal chemistry: An update on the development of synthetic methods and pharmacological diversification” (Bioorg Med Chem, 2016)
One block for each compound: values may come before it.

Experiments:
HepG2 [1] = assay: Potency index, ratio of doxorubicin IC50 to compound IC50 for anticancer activity against human HepG2 cells after 48 hrs by SRB assay; type: functional
HepG2 [2] = assay: Cytotoxicity against human HepG2 cells measured after 48 hrs by SRB assay; type: functional, cell-based
[3] = Anticancer activity against human HCT116 cells measured after 48 hrs by SRB assay; type: functional, cell-based; settings: hct-116
[4] = target: Epidermal growth factor receptor (Homo sapiens) (UniProt P00533); assay: Inhibition of EGFR-tyrosine kinase (unknown origin) at 10 uM measured after 2 hrs by kinase-glo plus luminescence kinase assay
Sequence of Epidermal growth factor receptor (Homo sapiens) (P00533 whole entry): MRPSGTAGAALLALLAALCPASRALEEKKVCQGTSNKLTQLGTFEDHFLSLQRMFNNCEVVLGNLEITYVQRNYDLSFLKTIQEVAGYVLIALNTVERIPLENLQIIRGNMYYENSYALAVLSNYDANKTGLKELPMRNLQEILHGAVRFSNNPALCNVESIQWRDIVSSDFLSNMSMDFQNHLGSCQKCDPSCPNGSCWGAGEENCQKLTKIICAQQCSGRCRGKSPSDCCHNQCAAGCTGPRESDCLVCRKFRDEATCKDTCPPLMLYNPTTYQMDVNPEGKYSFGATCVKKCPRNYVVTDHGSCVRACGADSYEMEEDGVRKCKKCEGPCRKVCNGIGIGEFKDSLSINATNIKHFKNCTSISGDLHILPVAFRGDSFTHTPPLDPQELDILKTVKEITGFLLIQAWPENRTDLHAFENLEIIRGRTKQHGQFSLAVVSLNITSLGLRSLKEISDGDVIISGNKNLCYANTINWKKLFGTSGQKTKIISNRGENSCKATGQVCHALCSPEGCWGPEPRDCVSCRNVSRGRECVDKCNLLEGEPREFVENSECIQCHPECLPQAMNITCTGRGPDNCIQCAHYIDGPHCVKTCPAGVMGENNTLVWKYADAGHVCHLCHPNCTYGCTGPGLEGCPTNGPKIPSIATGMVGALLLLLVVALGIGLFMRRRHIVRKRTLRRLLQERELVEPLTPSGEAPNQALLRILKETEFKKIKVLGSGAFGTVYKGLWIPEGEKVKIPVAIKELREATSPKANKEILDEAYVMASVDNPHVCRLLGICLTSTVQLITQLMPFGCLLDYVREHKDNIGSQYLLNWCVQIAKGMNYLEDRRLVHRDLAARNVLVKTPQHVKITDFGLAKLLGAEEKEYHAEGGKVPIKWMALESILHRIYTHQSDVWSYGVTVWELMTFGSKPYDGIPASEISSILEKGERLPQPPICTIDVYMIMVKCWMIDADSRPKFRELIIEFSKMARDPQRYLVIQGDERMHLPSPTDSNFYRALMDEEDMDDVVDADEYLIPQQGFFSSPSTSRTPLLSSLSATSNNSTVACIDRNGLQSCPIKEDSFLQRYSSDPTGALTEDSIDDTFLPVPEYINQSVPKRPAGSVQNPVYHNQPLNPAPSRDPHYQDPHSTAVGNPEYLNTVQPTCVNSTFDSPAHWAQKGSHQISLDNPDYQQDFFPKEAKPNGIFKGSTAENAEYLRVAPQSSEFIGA

Plasmodium berghei [5] = assay: Antimalarial activity against chloroquine-sensitive Plasmodium berghei ANKA infected Swiss albino mouse assessed as suppression of parasitemia at 16.59 mg/kg administered for 4 consecutive days measured on 5th day by Giemsa staining based microscopic method; type: functional
Plasmodium berghei [6] = assay: Antimalarial activity against chloroquine-sensitive Plasmodium berghei ANKA infected Swiss albino mouse assessed as mean survival time at 16.59 mg/kg administered for 4 consecutive days; type: functional
[7] = target: Epidermal growth factor receptor (Homo sapiens) (UniProt P00533); assay: Inhibition of EGFR-TK receptor (unknown origin); settings: concentration not given here
[8] = Protective index, ratio of neurotoxicity in mouse to anticonvulasnt activity for MES-induced seizure mouse model; type: toxicity, organism-based; settings: in vivo, read-out: PI
Mus musculus = organism: Mus musculus; assay: Anticonvulsant activity in mouse assessed as reduction in MES-induced seizures by maximal electroshock seizure test; type: functional
[9] = Anticancer activity against human NCI lung cancer cell by MTT assay; type: functional, cell-based; settings: Cancer cell lines
HT-29 = assay: Anticancer activity against human HT-29 cells measured after 72 hrs by MTT assay; type: functional, cell-based; settings: HT-29, 72 h
[10] = Cytotoxicity against human lymphocytes measured after 72 hrs by MTT assay; type: cell-based; settings: Lymphocyte
[11] = Anticancer activity against human HCT116 cells measured after 72 hrs by MTT assay; type: functional, cell-based; settings: HCT-116, 72 h
Thymidine phosphorylase = Thymidine phosphorylase (Escherichia coli K-12, UniProt P07650); assay: Inhibition of recombinant Escherichia coli thymidine phosphorylase using thymidine as substrate measured after 10 mins at 30 degC by spectrophotometric method
Sequence of Thymidine phosphorylase (P07650 whole entry): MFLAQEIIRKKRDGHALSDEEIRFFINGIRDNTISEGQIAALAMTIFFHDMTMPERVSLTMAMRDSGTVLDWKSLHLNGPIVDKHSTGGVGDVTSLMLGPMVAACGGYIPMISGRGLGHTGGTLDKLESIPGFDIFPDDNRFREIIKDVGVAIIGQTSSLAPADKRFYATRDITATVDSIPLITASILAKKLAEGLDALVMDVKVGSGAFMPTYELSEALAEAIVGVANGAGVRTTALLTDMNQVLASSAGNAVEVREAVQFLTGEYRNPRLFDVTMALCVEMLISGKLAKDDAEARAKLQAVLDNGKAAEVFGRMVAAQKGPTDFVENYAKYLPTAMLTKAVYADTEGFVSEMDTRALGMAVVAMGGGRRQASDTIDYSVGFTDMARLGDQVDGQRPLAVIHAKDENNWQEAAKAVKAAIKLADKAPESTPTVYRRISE

[12] = target: T1, Cathepsin H (Capra hircus) (UniProt A0A060INS8); assay: Inhibition of goat cathepsin H at 750 uM in presence of Leu-beta-NA after 30 mins by colorimetric method
T1 sequence (whole entry): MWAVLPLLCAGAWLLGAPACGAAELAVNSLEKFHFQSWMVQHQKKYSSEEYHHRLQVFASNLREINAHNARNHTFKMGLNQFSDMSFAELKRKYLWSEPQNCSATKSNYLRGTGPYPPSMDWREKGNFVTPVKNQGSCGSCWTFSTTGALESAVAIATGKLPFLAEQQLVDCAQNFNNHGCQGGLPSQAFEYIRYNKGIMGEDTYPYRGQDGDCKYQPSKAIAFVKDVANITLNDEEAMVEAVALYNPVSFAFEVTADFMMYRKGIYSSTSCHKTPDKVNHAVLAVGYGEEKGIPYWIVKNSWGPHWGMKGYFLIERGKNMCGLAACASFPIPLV

[13] = target: T1, Cathepsin H (Capra hircus); assay: Inhibition of goat cathepsin H at 10 uM in presence of Leu-beta-NA after 30 mins by colorimetric method
Cavia porcellus = organism: Cavia porcellus; assay: Antihistaminic activity in guinea pigs assessed as supression of histamine induced bronchospasm
Plasmodium berghei [14] = assay: Antimalarial activity against chloroquine-sensitive Plasmodium berghei ANKA infected Swiss albino mouse assessed as parasitemia at 18.73 mg/kg administered for 4 consecutive days measured on 5th day by Giemsa staining based microscopic method; type: functional
Plasmodium berghei [15] = assay: Antimalarial activity against chloroquine-sensitive Plasmodium berghei ANKA infected Swiss albino as mean survival time at 18.73 mg/kg administered for 4 consecutive days; type: functional
Plasmodium berghei [16] = assay: Antimalarial activity against chloroquine-sensitive Plasmodium berghei ANKA infected Swiss albino mouse assessed as suppression of parasitemia at 18.73 mg/kg administered for 4 consecutive days measured on 5th day by Giemsa staining based microscopic method; type: functional
[17] = target: Cathepsin B (Capra hircus) (UniProt H9B8T9); settings: 25 uM
Description: Inhibition of goat cathepsin B at 25 uM in presence of BANA after 30 mins by colorimetric method

[18] = target: Cathepsin B (Capra hircus) (UniProt H9B8T9); settings: 100 nM
Description: Inhibition of goat cathepsin B at 100 nM in presence of BANA after 30 mins by colorimetric method

Structure (SMILES): COc1ccc(-c2cc(-c3ccc(-n4c(-c5ccco5)nc5ccccc5c4=O)cc3)[nH]c(=N)c2C#N)cc1
- Ratio IC50 (HepG2 [1]): 4
- IC50 (HepG2 [2]): 6.6 µM
- IC50 [3]: 0.2 µM

- inhibition [4]: 95.6%
Structure (SMILES): N#CC1=C(N)OC(c2ccc(-n3c(-c4ccco4)nc4ccccc4c3=O)cc2)=CC1c1ccc(Cl)cc1 (configuration not stated)
- Ratio IC50 (HepG2 [1]): 24

Structure (SMILES): O=c1c2ccccc2nc(/C=C/c2ccc(O)cc2)n1-c1ccccc1
- inhibition in vivo at 16.59 mg/kg (Plasmodium berghei [5]): 67.6%
- MST (Plasmodium berghei [6]): 8.3 days

- inhibition [7]: 84%
Structure (SMILES): O=C(/C=C/c1ccccc1)c1ccc(-n2c(-c3ccco3)nc3ccccc3c2=O)cc1

Structure (SMILES): O=c1c2ccccc2nc(-n2cncn2)n1-c1cccc(Br)c1
- selectivity ratio [8]: > 26
- ED50 (Mus musculus): 94.6 mg/kg

Structure (SMILES): COc1cccc2c1C(=O)c1c(O)c3c(c(O)c1C2=O)C[C@@](O)(C(=O)CO)C[C@@H]3O[C@H]1C[C@H](N)[C@H](O)[C@H](C)O1 [DOXORUBICIN]
- IC50 (HepG2 [2]): 5.7 µM
- IC50 [3]: 4.8 µM

Structure (SMILES): O=c1c2ccccc2nc(-n2cncn2)n1-c1ccc(Cl)cc1
- selectivity ratio [8]: > 25.5
- ED50 (Mus musculus): 88 mg/kg

Structure (SMILES): CN(Cc1cnc2nc(N)nc(N)c2n1)c1ccc(C(=O)N[C@@H](CCC(=O)O)C(=O)O)cc1 [METHOTREXATE]
- IC50 [9]: 2.4 µM

- IC50 (HT-29): 50.9 µM
Structure (SMILES): O=c1c2cc(N3CCN(c4ccccc4F)CC3)ccc2ncn1Cc1ccccc1
- IC50 [10]: 197 µM
- IC50 [11]: 46 µM

Structure (SMILES): Cc1ccc(-c2cc(-c3ccc(-n4c(-c5ccco5)nc5ccccc5c4=O)cc3)[nH]c(=N)c2C#N)cc1
- IC50 (HepG2 [2]): 6.7 µM
- IC50 [3]: 1.2 µM

- IC50 (Thymidine phosphorylase): 59.5 µM
Structure (SMILES): O=c1[nH]c(-c2cc(O)ccc2O)nc2ccccc12

Structure (SMILES): Cc1cc(C)nc(NS(=O)(=O)c2ccc(-n3c(C)nc4ccc(F)cc4c3=O)cc2)n1
- IC50 [9]: 2.51 µM

- IC50 (Thymidine phosphorylase): 42.9 µM
Structure (SMILES): O=c1[nH]c(-c2ccc(O)c(O)c2)nc2ccccc12

- inhibition [12]: 50%
- inhibition [13]: 100%
Structure (SMILES): O=C1NC(c2ccc(F)cc2)Nc2ccccc21 (configuration not stated)

Structure (SMILES): CN(C)CCC(c1ccc(Cl)cc1)c1ccccn1.O=C(O)/C=C\C(=O)O (configuration not stated) [CHLORPHENIRAMINE MALEATE]
- inhibition (INH) (Cavia porcellus): 70.09%

Structure (SMILES): COc1cc(/C=C/c2nc3ccccc3c(=O)n2-c2ccccc2C)ccc1O
- Activity (Plasmodium berghei [14]): 17.71%
- MST (Plasmodium berghei [15]): 9.2 days
- inhibition in vivo at 18.73 mg/kg (Plasmodium berghei [16]): 72.9%

Structure (SMILES): Cc1nnc2n(-c3cccc(Cl)c3)c(=O)c3ccccc3n12
- inhibition (INH) (Cavia porcellus): 69.65%

- inhibition [17]: 100%
- inhibition [18]: 50%
Structure (SMILES): Cc1ccc(C2NC(=O)c3ccccc3N2)cc1 (configuration not stated)
